{
  "source": "patent US20240360143A1",
  "about": "“[1,2,4]TRIAZOLO[4,3-A]PYRIMIDIN-7(8H)-ONE AS MITOCHONDRIAL PYRUVATE CARRIER INHIBITORS FOR USE IN THE TREATMENT OF CANCER” (MPC THERAPEUTICS SA, priority 2021, published 2024)",
  "key": {"[1]": {"biological_target": "T1, mitochondrial pyruvate carrier (MPC) (Homo sapiens, UniProt O95563+Q9Y5U8)", "T1 sequence (Q9Y5U8 1-109)": "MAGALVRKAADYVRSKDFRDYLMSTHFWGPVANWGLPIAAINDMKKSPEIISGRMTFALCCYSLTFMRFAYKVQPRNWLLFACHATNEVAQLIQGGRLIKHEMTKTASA", "T1 sequence (O95563 1-127)": "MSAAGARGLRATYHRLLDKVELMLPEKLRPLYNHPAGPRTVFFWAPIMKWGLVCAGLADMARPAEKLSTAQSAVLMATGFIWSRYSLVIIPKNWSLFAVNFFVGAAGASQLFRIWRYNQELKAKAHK", "experiment": "Bret IC50, inhibitory activity against MPC", "assay_type": "cell-based", "excerpt": "The inhibition of mitochondrial pyruvate carrier (MPC) by compounds of the invention have been tested as follows and their inhibitory activity was expressed as IC50s values.\nTable 2 below presents the IC50s of the compounds of the invention."}, "[2]": {"test_system": "CD8 T cells (OT1 splenocytes)", "experiment": "In vitro priming of CD8 T cells (OT1 splenocytes), memory marker expression by flow cytometry", "assay_type": "cell-based, mouse", "settings": "day 7, highest doses", "procedure": "OT1 splenocytes were cultured for 3 days at a concentration of 10^6 cells per mL in RPMI medium (Gibco 61870-01) supplemented with 10% FBS, (Gibco 10270-106), 1% Penicillin/Streptomycin (Gibco 15070-063), 50 μM ß-mercaptoethanol, 1% HEPES (Gibco 15630-080), 1× Non-essential amino acids (Gibco 11140-035), 1% L-glutamine (Gibco 25030-081), 1 mM Sodium Pyruvate (Gibco 11360-039). Cells were additionally supplemented with hIL-2 100 U/ml (Glaxo-IMB), ovalbumin N4 peptide (257-264) 1 μg/ml (model peptide antigen from ovalbumin) and either different concentrations of Compound 45 or 47 or with their solvent DMSO as a control. At day 3, splenocytes were collected, washed and split, and cells were cultured for 4 additional days with 100 U/ml hIL-2 and hIL-7 (Peprotech 200-07) supplemented either with Compound 45 or 47 or DMSO. At day 7, flow cytometry analyses were performed for surface marker expression.\nTo evaluate the effects of MPC inhibition on T cell differentiation, OTI splenocytes were cultured in the presence of 1 μg/ml ovalbumin-derived N4 peptide, 100 IU/ml recombinant human IL-2 (rhIL-2) and the MPC inhibitors Compound 45 or 47 or control DMSO for 3 days. The cells were cultured for 4 more days in the presence of 100 IU/ml IL-2 and 10 ng/ml rhIL-7 (FIG. 1A) and the inhibitors or DMSO. When analyzing the surface expression of the central memory marker CD62L (FIG. 1B) and the pro-survival receptor CD127 (FIG. 1C) by flow cytometry on day 7, an increase in cells treated with the highest doses of compounds of the invention was observed compared to DMSO."}, "B16-OVA melanoma": {"test_system": "B16-OVA melanoma", "experiment": "Adoptive cell transfer of compound-treated OT1 CD8 T cells in B16-OVA melanoma tumor model", "assay_type": "in vivo, mouse", "procedure": "Activated CD45.1+OT-1 splenocytes were culture in vitro for 7 days as described above, collected and purified on a Ficoll gradient, allowing to separate dead and live splenocytes. Live splenocytes were counted with Trypan blue stain 0.4%. 100′000 or 2′000′000 live splenocytes were transferred into CD45.2+ host mice by tail vein injection.\nB16-OVA cells were cultured in DMEM (GIBCO) with 10% FBS and 1% P/S before their subcutaneous injection into the mouse flank. Each mouse received 100′000 cells in a volume of 200 μl of PBS. 6 days after B16-OVA cells injection, tumors were measured, mice were randomized and lymphodepleted by irradiation (5 Gray). 7 days after B16-Ova injection, mice were adoptively transferred with the ACT protocol described previously. Following the ACT, mice received a vaccination of CpG (50 μg/mouse) and N4 Ova peptide (10 μg/mouse) diluted in PBS to obtain a total volume of 100 μl/mouse, injected subcutaneously at the tail base. Tumors were measured every 2 days and the tumor volume was calculated according to the formula: V=π×[d2×D]/6, where d is the minor tumor axis and D is the major tumor axis. At day 26 days post-tumor engraftment, tumors and spleens were dissected were then stained for flow cytometry analyses.\nBriefly, 105 ovalbumin-expressing B16 melanoma cells were injected subcutaneously in 6-week-old mice. At day 6 post-engraftment, when a palpable tumor was present, mice were irradiated with 5Gy. The next day 105 Compound 45- or DMSO-treated OT1 cells were intravenously injected, followed by a subcutaneous vaccination of 50 μg CpG and 10 μg N4 Ova peptide (FIG. 2A). […] When analysing the blood 9 days post-adoptive cell transfer, one could observe an increase in number of transferred cells when treated in vitro with Compound 45 as compared to DMSO (FIG. 2D). The phenotype of the Compound 45-treated cells was biased towards memory, as there was a reduced percentage of short-lived effector T cells (FIG. 2E) and an increase in memory-precursor effector T cells and cells with a central memory phenotype (FIGS. 2F and 2G). When analysing the tumor upon dissection, more Compound 45-treated T cells were infiltrating the tumor (FIG. 2H).\nIn order to observe a stronger anti-tumor response of the transferred OT1 T cells, the previous experiment was repeated by transferring 2×10^6 DMSO- or Compound 45-treated OT1 T cells, instead of only 10^5 (FIG. 3A). […] When analysing the tumor upon dissection, no difference in T cell infiltration was observed (FIG. 3D). […] There was however no difference in terminally exhausted or progenitor exhausted T cells (FIGS. 3F and 3G). […] There was no difference in CD107a expression (FIG. 3O)."}},
  "data": [
    {"smiles": "O=c1cc(Cc2ccccc2)n2c(SCc3c(F)cccc3Cl)nnc2[nH]1", "note": "[Compound 45, 5-benzyl-3-[(2-chloro-6-fluorobenzyl)sulfanyl][1,2,4]triazolo[4,3-a]pyrimidin-7 (8H)-one]", "values": [
      {"measurement": "IC50", "setting": "[1]", "result": 0.117, "unit": "µM"},
      {"measurement": "cells positive for central memory marker CD62L", "setting": "[2]; vs DMSO (FIG. 1B)", "result": "increase"},
      {"measurement": "cells positive for pro-survival receptor CD127", "setting": "[2]; vs DMSO (FIG. 1C)", "result": "increase"},
      {"measurement": "number of treated T cells in the spleen", "setting": "B16-OVA melanoma; 2×10^6 cells, spleen (FIG. 3H)", "result": "decreased"},
      {"measurement": "central memory phenotype in the spleen", "setting": "B16-OVA melanoma; 2×10^6 cells, spleen (FIG. 3I)", "result": "increased"},
      {"measurement": "TCF1 expression in the spleen", "setting": "B16-OVA melanoma; 2×10^6 cells, spleen (FIG. 3J)", "result": "trend towards increased"},
      {"measurement": "terminally exhausted T cells", "setting": "B16-OVA melanoma; 2×10^6 cells, tumor (FIG. 3F)", "result": "no difference"},
      {"measurement": "progenitor exhausted T cells", "setting": "B16-OVA melanoma; 2×10^6 cells, tumor (FIG. 3G)", "result": "no difference"},
      {"measurement": "IFNy expression", "setting": "B16-OVA melanoma; 2×10^6 cells, tumor cells restimulated with OVA peptide (FIG. 3K)", "result": "did not show difference"},
      {"measurement": "TNF expression", "setting": "B16-OVA melanoma; 2×10^6 cells, tumor cells restimulated with OVA peptide (FIG. 3L)", "result": "did not show difference"},
      {"measurement": "IL2 expression", "setting": "B16-OVA melanoma; 2×10^6 cells, tumor cells restimulated with OVA peptide (FIG. 3M)", "result": "did not show difference"},
      {"measurement": "Granzyme B expression", "setting": "B16-OVA melanoma; 2×10^6 cells, tumor cells restimulated with OVA peptide (FIG. 3N)", "result": "increased"},
      {"measurement": "CD107a expression", "setting": "B16-OVA melanoma; 2×10^6 cells, tumor cells restimulated with OVA peptide (FIG. 3O)", "result": "no difference"},
      {"measurement": "T cell infiltration in tumor", "setting": "B16-OVA melanoma; 2×10^6 cells, tumor upon dissection (FIG. 3D)", "result": "no difference"},
      {"measurement": "exhausted tumor infiltrating T cells", "setting": "B16-OVA melanoma; 2×10^6 cells, vs DMSO (FIG. 3E)", "result": "more exhausted"},
      {"measurement": "B16 tumor growth", "setting": "B16-OVA melanoma; 2×10^6 treated OT1 cells transferred, vs DMSO (FIG. 3B)", "result": "strongly reduced"},
      {"measurement": "B16 tumor weight", "setting": "B16-OVA melanoma; 2×10^6 treated OT1 cells, vs DMSO (FIG. 3C)", "result": "strongly reduced"},
      {"measurement": "percentage of short-lived effector T cells", "setting": "B16-OVA melanoma; 10^5 cells, blood 9 days post-ACT (FIG. 2E)", "result": "reduced"},
      {"measurement": "memory-precursor effector T cells", "setting": "B16-OVA melanoma; 10^5 cells, blood 9 days post-ACT (FIG. 2F)", "result": "increase"},
      {"measurement": "cells with a central memory phenotype", "setting": "B16-OVA melanoma; 10^5 cells, blood 9 days post-ACT (FIG. 2G)", "result": "increase"},
      {"measurement": "number of transferred cells in blood", "setting": "B16-OVA melanoma; 10^5 cells, blood 9 days post-ACT, vs DMSO (FIG. 2D)", "result": "increase"},
      {"measurement": "number of treated T cells in the spleen", "setting": "B16-OVA melanoma; 10^5 cells, spleen (FIG. 2L)", "result": "increased"},
      {"measurement": "central memory phenotype in the spleen", "setting": "B16-OVA melanoma; 10^5 cells, spleen (FIG. 2M)", "result": "increased"},
      {"measurement": "TCF1 expression in the spleen", "setting": "B16-OVA melanoma; 10^5 cells, spleen (FIG. 2N)", "result": "not significantly altered"},
      {"measurement": "IFNy expression", "setting": "B16-OVA melanoma; 10^5 cells, tumor cells restimulated with OVA peptide (FIG. 2O)", "result": "did not show a significant increase"},
      {"measurement": "TNF expression", "setting": "B16-OVA melanoma; 10^5 cells, tumor cells restimulated with OVA peptide (FIG. 2P)", "result": "did not show a significant increase"},
      {"measurement": "IL2 expression", "setting": "B16-OVA melanoma; 10^5 cells, tumor cells restimulated with OVA peptide (FIG. 2Q)", "result": "did not show a significant increase"},
      {"measurement": "Granzyme B expression", "setting": "B16-OVA melanoma; 10^5 cells, tumor cells restimulated with OVA peptide (FIG. 2R)", "result": "did not show a significant increase"},
      {"measurement": "expression of CD107a (LAMP1)", "setting": "B16-OVA melanoma; 10^5 cells, tumor cells restimulated with OVA peptide (FIG. 2S)", "result": "increased"},
      {"measurement": "treated T cells infiltrating the tumor", "setting": "B16-OVA melanoma; 10^5 cells, tumor upon dissection (FIG. 2H)", "result": "more"},
      {"measurement": "exhausted tumor infiltrating T cells", "setting": "B16-OVA melanoma; 10^5 cells, vs DMSO (FIG. 2I)", "result": "not significantly more or less exhausted"},
      {"measurement": "B16 tumor growth", "setting": "B16-OVA melanoma; 10^5 treated OT1 cells transferred, vs DMSO (FIG. 2B)", "result": "reduced"},
      {"measurement": "Tumor weight", "setting": "B16-OVA melanoma; 10^5 treated OT1 cells, vs DMSO (FIG. 2C)", "result": "not significantly reduced"}
    ]}
  ]
}
